Counter-ions that a name gives are not always drawn. Like-named read-outs stand apart in the source and are kept apart here. Blank lines part the entries; values can stand above or below the compound they belong to.
Key:
[1] = tested on: hD2 and hD3 dopamine receptors expressed in HEK-293 cells; assay: D2 and D3 dopamine receptor combination experiments; assay type: binding, human; details: radioligand about Kd for hD3, 37°C 30 min, (+)-butaclamol nonspecific
[2] = target: rat D3 dopamine receptors (Rattus norvegicus, UniProt P19020); assay: competitive radioligand binding with [3H]LS-3-134, rD3 HEK-293
rat striatal tissue = rat striatal tissue (Rattus norvegicus, UniProt P19020); assay: competitive radioligand binding with [3H]LS-3-134, rat striatal tissue; details: Ki values [^3H]LS-3-134 rat striatum, mean ± S.E.M., n ≥ 3, Cheng & Prusoff
D2 dopamine receptor = details: forskolin-dependent adenylyl cyclase; ref Tu et al., 2011a; cited from earlier work
D3 dopamine receptor = details: forskolin-dependent adenylyl cyclase; ref Tu et al., 2011a; cited from earlier work
[3] = target: T1, human D2 dopamine receptors (Homo sapiens, UniProt P14416); details: ratio of Ki values of Table I
[4] = target: T2, human D3 dopamine receptors (Homo sapiens, UniProt P35462); assay: competitive radioligand binding with [3H]LS-3-134, hD3 HEK-293
[5] = target: T1, human D2 dopamine receptors; details: ref Vangveravong et al., 2006; Luedtke et al., 2012; cited from earlier work
[6] = target: T2, human D3 dopamine receptors; assay: [125I]IABN radioligand binding, human D3 receptors stably expressed in HEK cells; details: ratio of Ki values of Table I
[7] = target: T2, human D3 dopamine receptors; details: ref Tu et al., 2011a; cited from earlier work
D2 and D3 receptors = details: humans; ref Tziortzi et al., 2011; Payer et al., 2014a,b; cited from earlier work
[8] = Ki values [^3H]LS-3-134 rD3-HEK 293, mean ± S.E.M., n ≥ 3, Cheng & Prusoff

T2 sequence (P35462 whole entry): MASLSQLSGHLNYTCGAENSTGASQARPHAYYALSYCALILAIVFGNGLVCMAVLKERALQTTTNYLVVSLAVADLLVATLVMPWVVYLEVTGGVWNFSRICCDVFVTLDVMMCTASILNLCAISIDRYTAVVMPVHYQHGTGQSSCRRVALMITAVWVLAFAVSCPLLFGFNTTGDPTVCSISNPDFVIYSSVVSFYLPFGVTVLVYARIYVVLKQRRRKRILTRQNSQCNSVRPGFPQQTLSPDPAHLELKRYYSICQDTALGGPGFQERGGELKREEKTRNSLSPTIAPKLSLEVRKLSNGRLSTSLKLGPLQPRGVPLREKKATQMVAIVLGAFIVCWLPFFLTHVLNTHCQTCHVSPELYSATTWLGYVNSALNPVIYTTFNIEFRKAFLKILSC
T1 sequence (P14416 whole entry): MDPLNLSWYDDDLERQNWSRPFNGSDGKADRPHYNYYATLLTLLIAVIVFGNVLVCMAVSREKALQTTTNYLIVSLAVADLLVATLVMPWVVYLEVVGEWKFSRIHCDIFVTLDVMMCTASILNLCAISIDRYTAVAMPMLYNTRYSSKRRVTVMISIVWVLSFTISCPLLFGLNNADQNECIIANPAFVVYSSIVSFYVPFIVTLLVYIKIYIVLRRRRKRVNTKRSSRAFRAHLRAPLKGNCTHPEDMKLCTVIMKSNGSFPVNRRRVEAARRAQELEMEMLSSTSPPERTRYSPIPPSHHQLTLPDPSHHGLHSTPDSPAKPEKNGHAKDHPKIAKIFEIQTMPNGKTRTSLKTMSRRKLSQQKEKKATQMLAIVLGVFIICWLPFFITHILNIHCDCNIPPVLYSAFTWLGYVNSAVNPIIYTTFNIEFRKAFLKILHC
Sequence of rat D3 dopamine receptors (P19020 whole entry): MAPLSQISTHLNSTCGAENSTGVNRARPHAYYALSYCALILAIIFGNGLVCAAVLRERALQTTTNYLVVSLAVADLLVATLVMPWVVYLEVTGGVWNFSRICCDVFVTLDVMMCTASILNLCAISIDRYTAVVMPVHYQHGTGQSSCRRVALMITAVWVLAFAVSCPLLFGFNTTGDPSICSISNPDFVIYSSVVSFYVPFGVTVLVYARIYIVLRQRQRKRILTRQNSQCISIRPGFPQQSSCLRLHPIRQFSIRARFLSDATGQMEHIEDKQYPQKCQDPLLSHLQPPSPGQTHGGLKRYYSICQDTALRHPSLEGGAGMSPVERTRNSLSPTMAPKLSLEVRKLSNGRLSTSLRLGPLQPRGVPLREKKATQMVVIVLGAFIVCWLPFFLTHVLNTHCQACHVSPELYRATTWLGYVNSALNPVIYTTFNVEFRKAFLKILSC
Sequence of rat striatal tissue (P19020 whole entry): as above

Structure (SMILES): CCN1CCC[C@H]1CNC(=O)c1c(O)c(Cl)cc(Cl)c1OC (racemic) [[^3H]raclopride]
specific binding on adding increasing amounts of hD2 membranes to constant hD3 [1]: increased specific binding was observed

Ki [2, 8]: 0.12 ± 0.05 nM
Ki (rat striatal tissue): 0.37 ± 0.09 nM
Structure (SMILES): CCc1cc(Cl)c(OC)c(C(=O)NC[C@@H]2CCCN2CC)c1O [Eticlopride, S-(−)-3-chloro-5-ethyl-N-[(1-ethyl-2-pyrrolidinyl)methyl]-6-hydroxy-2-methoxybenzamide hydrochloride]

Structure (SMILES): O=C(NCCCCN1CCN(c2ccccc2OCCF)CC1)c1ccc(-c2ccsc2)cc1 [LS-3-134]
% of full agonist activity at D2 (D2 dopamine receptor): 29%
% of full agonist activity at D3 (D3 dopamine receptor): 35%

Structure (SMILES): COc1ccc2[nH]cc(CN3CCC(O)(c4ccc(SC)cc4)CC3)c2c1 [SV 293, 1-((5-methoxy-1H-indol-3-yl)methyl)-4-(4-(methylthio)phenyl)piperidin-4-ol]
Ki [2, 8]: 892 ± 44.2 nM
Binding Selectivity D3:D2 [3]: 105
Binding Selectivity D4:D2 [3]: 103
Ki (rat striatal tissue): 323 ± 49.1 nM
Ki ([4]; Ki values [^3H]LS-3-134 hD3-HEK 293, mean ± S.E.M., n ≥ 3, Cheng & Prusoff): 324 ± 39.2 nM
selectivity for hD2 dopamine receptors compared to hD3 [5]: 100 fold

Ki [2]: 5.71 ± 0.81 nM
Binding Selectivity D2:D3 [6]: 43
Binding Selectivity D4:D3 [6]: 1120
Ki (rat striatal tissue): 2.46 ± 0.19 nM
Ki [4]: 1.25 ± 0.36 nM
Structure (SMILES): COc1ccccc1N1CCN(CCCCNC(=O)c2ccc(N(C)C)cc2)CC1 [WC 10, 4-(dimethylamino)-N-(4-(4-(2-methoxyphenyl)piperazin-1-yl)butyl)benzamide]
D3 vs. D2 dopamine receptor subtype binding selectivity [7]: 43 fold

Structure (SMILES): CCCN1CCO[C@@H]2c3cc(O)ccc3CC[C@H]21 [[^11C](+)-PHNO]
receptors labelled in PET imaging (D2 and D3 receptors): label both D2 and D3 receptors

Structure (SMILES): COc1cc([125I])cc(C(=O)NC2CC3CCCC(C2)N3Cc2ccccc2)c1OC (stereo not shown) [[^125I]IABN]
specific binding on adding increasing amounts of hD2 membranes to constant hD3 [1]: increased specific binding was observed
